Measured values taken from ChEMBL document CHEMBL1149066, “Esperamicin P, the tetrasulfide analog of esperamicin A1” (J Nat Prod, 1994).
Converted amounts (≈) assume the structure as drawn. The source made the active and inactive calls. The calls are words filed in the database; no cut-off is given here.

Assays:
A549 [1] = experiment: Cytotoxicity against human A549 cells; assay type: functional, cell-based
[2] = Cytotoxicity against human HCT/VP35 cells; assay type: functional, cell-based
HCT-116 = experiment: Cytotoxicity against human HCT116 cells; assay type: functional, cell-based
P388 [3] = experiment: In vivo antitumor activity against mouse P388 cells at 1 to 3 ug/kg, ip; assay type: functional
Staphylococcus aureus [4] = experiment: Antimicrobial activity against Staphylococcus aureus A20698 by serial twofold dilution method; assay type: functional
Escherichia coli [5] = experiment: Antimicrobial activity against Escherichia coli A15119 by serial twofold dilution method; assay type: functional
Enterococcus faecalis [6] = experiment: Antimicrobial activity against Enterococcus faecalis A25707 by serial twofold dilution method; assay type: functional
Pseudomonas aeruginosa [7] = experiment: Antimicrobial activity against Pseudomonas aeruginosa A20235 by serial twofold dilution method; assay type: functional
Staphylococcus aureus [8] = experiment: Antimicrobial activity against Staphylococcus aureus A24407 by serial twofold dilution method; assay type: functional
Staphylococcus aureus [9] = experiment: Antimicrobial activity against Staphylococcus aureus A9537 by serial twofold dilution method; assay type: functional
Proteus vulgaris = experiment: Antimicrobial activity against Proteus vulgaris A21559 by serial twofold dilution method; assay type: functional
Pseudomonas aeruginosa [10] = experiment: Antimicrobial activity against Pseudomonas aeruginosa A9843 by serial twofold dilution method; assay type: functional
Enterococcus faecalis [11] = experiment: Antimicrobial activity against Enterococcus faecalis A20688 by serial twofold dilution method; assay type: functional
Klebsiella pneumoniae [12] = experiment: Antimicrobial activity against Klebsiella pneumoniae A9664 by serial twofold dilution method; assay type: functional
A549 [13] = experiment: Cytotoxicity against […]-resistant human A549 cells; assay type: functional, cell-based
Enterococcus faecalis [14] = experiment: Antimicrobial activity against Enterococcus faecalis A25708 by serial twofold dilution method; assay type: functional
Escherichia coli [15] = experiment: Antimicrobial activity against Escherichia coli A9751 by serial twofold dilution method; assay type: functional
Escherichia coli [16] = experiment: Antimicrobial activity against Escherichia coli A20697 by serial twofold dilution method; assay type: functional
P388 [17] = experiment: Antitumor activity against mouse P388 cells in iv dosed in vivo system; assay type: functional, organism-based
Klebsiella pneumoniae [18] = experiment: Antimicrobial activity against Klebsiella pneumoniae A20468 by serial twofold dilution method; assay type: functional
B16 = experiment: Cytotoxicity against mouse B16-PRIM cells; assay type: functional, cell-based

## C=C(OC)C(=O)Nc1cc(OC)c(OC)cc1C(=O)O[C@H]1C[C@H](O[C@@H]2C(=O)C(NC(=O)OC)=C3/C(=C\CSSSSC)[C@]2(O)C#C/C=C\C#C[C@@H]3O[C@@H]2O[C@H](C)[C@@H](NO[C@H]3C[C@H](O)[C@H](SC)[C@@H](C)O3)[C@H](O)[C@H]2O[C@H]2C[C@H](OC)[C@@H](NC(C)C)CO2)O[C@@H](C)[C@H]1O [ESPERAMICIN P]
A549 [1]
  IC50: 0.01 µg/mL (≈ 7.37 nM)
[2]
  IC50: < 0.002 µg/mL
HCT-116
  IC50: < 0.002 µg/mL
P388 [3]
  T/C: 145%
Staphylococcus aureus [4]
  MIC: 0.001 µg/mL (≈ 0.737 nM)
Escherichia coli [5]
  MIC: 0.25 µg/mL (≈ 184 nM)
Enterococcus faecalis [6]
  MIC: 0.002 µg/mL (≈ 1.47 nM)
Pseudomonas aeruginosa [7]
  MIC: 0.13 µg/mL (≈ 95.8 nM)
Staphylococcus aureus [8]
  MIC: 0.001 µg/mL (≈ 0.737 nM)
Staphylococcus aureus [9]
  MIC: 0.001 µg/mL (≈ 0.737 nM)
Proteus vulgaris
  MIC: 0.13 µg/mL (≈ 95.8 nM)
Pseudomonas aeruginosa [10]
  MIC: 0.25 µg/mL (≈ 184 nM)
Enterococcus faecalis [11]
  MIC: 0.002 µg/mL (≈ 1.47 nM)
Klebsiella pneumoniae [12]
  MIC: 1 µg/mL (≈ 737 nM)
A549 [13]
  IC50: 0.01 µg/mL (≈ 7.37 nM)
Enterococcus faecalis [14]
  MIC: 0.002 µg/mL (≈ 1.47 nM)
Escherichia coli [15]
  MIC: 0.016 µg/mL (≈ 11.8 nM)
Escherichia coli [16]
  MIC: 0.25 µg/mL (≈ 184 nM)
P388 [17]
  Activity: inactive
Klebsiella pneumoniae [18]
  MIC: 1 µg/mL (≈ 737 nM)
B16
  IC50: > 0.002 µg/mL

## C=C(OC)C(=O)Nc1cc(OC)c(OC)cc1C(=O)O[C@H]1C[C@H](O[C@@H]2C(=O)C(NC(=O)OC)=C3/C(=C\CSSSC)[C@]2(O)C#C/C=C\C#C[C@@H]3O[C@@H]2O[C@H](C)[C@@H](NO[C@H]3C[C@H](O)[C@H](SC)[C@@H](C)O3)[C@H](O)[C@H]2O[C@H]2C[C@H](OC)[C@@H](NC(C)C)CO2)O[C@@H](C)[C@H]1O
P388 [17]
  Activity: Active
